In patent publication US20230348418A1, “ISOINDOLINONE COMPOUNDS” (Monte Rosa Therapeutics, Inc., priority 2021, published 2023):
Like-named read-outs stand apart in the source and are kept apart here.

Columns and labels:
GSPT1 [1] = molecular target: T1, GSPT1 (Homo sapiens, UniProt P15170+Q96SW2); assay: Western blot selectivity assay in MM1S cells: GSPT1; type: cell-based; parameters: endogenous in cells; host or cells: MM1S (ATCC CRL-2974); settings: MM1S cells, 0.3, 3 and 30 μM, 6 hours
Method: (§1) MM1S cells were purchased from ATCC (cat. Number CRL-2974), sub-cultured in 90% RPMI 1640 with 10% FBS, supplemented with 1×P/S and incubated at 37° C., 5% CO2. Compounds were stored as 10 mM DMSO stock. For the assay, MM1S cells (3 million cells/well) were plated in 6-well plates and incubated over night. Cells were treated with respective compounds using a serial dilution: 0.3 μM, 3 μM and 30 μM as well as a vehicle only (DMSO) control for 6 hours. Media with suspension cells was subsequently transferred to 15 mL conical tubes, wells rinsed twice with ice-cold PBS and merged with cell suspension in respective 15 mL conical tube. Cells were spinned down, supernatant aspirated, pellets resuspended in ice-cold PBS and transferred to microtubes. Cells were spinned down, supernatant aspirated and pellets resuspended in 120 μL RIPA lysis buffer supplemented with protease and phosphatase inhibitors. Cell lysates were incubated on ice for 20 minutes followed by centrifugation at >20,000×g for 5 min. Supernatants were transferred to fresh microtubes and stored at −80° C. Total protein concentration was determined using a BCA assay with a BSA standard curve and concentration of all samples was adjusted to 1 mg/mL. 25 μL 4×LDS sample buffer supplemented with 100 mM DTT was added to 75 μL sample. Samples were centrifuged (8,000×g, 1 min) and incubated at 95° C. for 5 min followed by another centrifugation step (8,000×g, 1 min). 20 μL of each sample was loaded on a 4-12% gel alongside a protein molecular weight marker. Gels were run in the presence of MOPS buffer at 80 Volts for 30 min, followed by 120 Volts for 1.5 h and proteins subsequently transferred onto nitrocellulose membranes at 20 Volts for 7 min using an iBlot2 Gel Transfer Device. Membranes were then cut horizontally into two pieces, covering 80-50 kDa and 50-25 kDa. Blocking the membranes was performed by gently shaking in 5% (w/v) skim milk in TSB-T for 1 hr at room temperature. All primary antibodies were used at a 1/1000 in 5% (w/v) BSA dissolved in TBST and incubated with membranes over night at 4° C. Anti-IKZF1 (Ikaros; D6N9Y; 14859S), anti-IKZF3 (Aiolos; D1C1E; 15103S) antibodies were purchased from Cell Signalling Technology, anti-ZFP91 antibody from Bethyl laboratories, anti-GSPT1 from Sigma Aldrich (HPA052488) and anti CK1alpha from AbCam (ab206652). After three washes with 1×TBST for 5 min, HRP-coupled secondary antibodies diluted in 5% (w/v) BSA/TBST (Goat Anti-Rb IgG, dil. 1/10,000; Goat Anti-Mouse IgG, dil. 1/5000) were added for 1 hr at room temperature. After three washes with 1×TBST (5 minutes each), membranes were incubated with ECL reagent for 1 min at room temperature. Chemiluminescence signals were then detected using a LAS-4000 system with default settings and signals quantified using Image Studio Lite software (version 5.2). Membrane parts previously incubated with antibody against CK1alpha were stripped off antibodies by incubating with stripping buffer for 30 minutes followed by three washed with TBST (5 min each), blocking with 5% (w/v) skim milk for 1 hr, and incubation with primary antibody against GAPDH overnight at 4° C. Subsequent washes, incubation with secondary antibody and signal acquisition were performed as described above.

IKZF3 (Aiolos) = molecular target: T2, IKZF3 (Aiolos) (Homo sapiens, UniProt Q9UKT9); assay: Western blot selectivity assay in MM1S cells: IKZF3; type: cell-based; parameters: key: A represents a no degradation observed at 30 μM; B represents trace degradation at 30 μM (below 20%); C represents weak degradation at 30 μM (below 50%); D represents degradation at 30 μM (>90%); E represents degradation at 3 μM (>90%); F represents degradation at 0.3 μM (>90%); settings: MM1S cells, 0.3, 3 and 30 μM, 6 hours
T2 construct: endogenous in cells; host or cells: MM1S (ATCC CRL-2974)
Method: as §1, with “After three washes with 1×TBST (5 minutes each), membranes were incubated with ECL reagent for 1 min at room temperature.” left out, “Membrane parts previously incubated with antibody against CK1alpha were stripped off antibodies by incubating with stripping buffer for 30 minutes followed by three washed with TBST (5 min each), blocking with 5% (w/v) skim milk for 1 hr, and incubation with primary antibody against GAPDH overnight at 4° C. Subsequent washes, incubation with secondary antibody and signal acquisition were performed as described above.” left out

IKZF1 (Ikaros) = molecular target: T3, IKZF1 (Ikaros) (Homo sapiens, UniProt Q13422); assay: Western blot selectivity assay in MM1S cells: IKZF1; type: cell-based; parameters: key: A represents a no degradation observed at 30 μM; B represents trace degradation at 30 μM (below 20%); C represents weak degradation at 30 μM (below 50%); D represents degradation at 30 μM (>90%); E represents degradation at 3 μM (>90%); F represents degradation at 0.3 μM (>90%); settings: MM1S cells, 0.3, 3 and 30 μM, 6 hours
T3 construct: endogenous in cells; host or cells: MM1S (ATCC CRL-2974)
Method: as §1

[2] = molecular target: T4, Full length wild-type cereblon CRBN (Homo sapiens, UniProt Q96SW2); assay: Fluorescence polarization (FP) assay, cereblon binding
T4 construct: Full length wild-type cereblon CRBN (80.0 nM, 10 μL) was incubated in assay buffer
Procedure, shortened: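 Full-length wild-type human CRBN (80.0 nM) was preincubated with compound for 30 min at room temperature in 20 mM HEPES pH 8.0, 150 NaCl, 0.5 mM TCEP and 0.05% Tween 20. A Cy5-type thalidomide-linked fluorescent probe was then added. The FP signal was normalized to the DMSO control to derive IC50.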

GSPT1 [3] = molecular target: T1, GSPT1; assay: Immunofluorescence assay for GSPT1 degradation in CAL-51 cells (Example 4); type: cell-based; parameters: host or cells: CAL-51
Method: The representative compounds were tested in an immunofluorescence assay for their activity to bind to degrade GSPT1. […] Compounds were stored at 10 mM DMSO stocks. […] Cells were subsequently rinsed with PBS and fixed in 10% Formalin solution (50 μl, Sigma HT5011)) for 20 mins at room temperature. […] Following three further PBS washes, […] blocking buffer (1% BSA, Sigma A4503, in PBS) was added for 45 min for signal-to-noise reduction.
Primary antibody (human GSPT1, Sigma HPA052488) was diluted in blocking buffer (dil.1/300, 35 μl/well) and incubated with the cells overnight at 4° C. […] After three final PBS washes, samples were conserved in 100 μl PBS in the dark, until measurement. Image acquisition was performed on the Operetta High-Content Imager (Perkin-Elmer). […] For the determination of GSPT1 DC50 values, a custom algorithm implemented in the PerkinElmer image analysis software Harmony-Acapella® was developed. After user-defined setting of adjustment parameters, the analysis was run identically without human intervention for all image fields. DAPI staining of the nuclei was used to determine the location of cells using standard nuclei detection modules. Segmentation artifacts were removed by threshold-based filters for area, roundness and intensity. The outline of the cells was determined analogously from the sum of the normalized, smoothed DAPI and Actin channel, starting from each nucleus.
GSPT1 degradation (DC50) was calculated after normalization to controls and data import in CDD vault Database, using non-linear regression.

ZFP91 = molecular target: T5, ZFP91 (Homo sapiens, UniProt Q96JP5); assay: Western blot selectivity assay in MM1S cells: ZFP91; type: cell-based; parameters: key: A represents a no degradation observed at 30 μM; B represents trace degradation at 30 μM (below 20%); C represents weak degradation at 30 μM (below 50%); D represents degradation at 30 μM (>90%); E represents degradation at 3 μM (>90%); F represents degradation at 0.3 μM (>90%); settings: MM1S cells, 0.3, 3 and 30 μM, 6 hours
T5 construct: endogenous in cells; host or cells: MM1S (ATCC CRL-2974)
Method: (§2) MM1S cells were purchased from ATCC (cat. Number CRL-2974), sub-cultured in 90% RPMI 1640 with 10% FBS, supplemented with 1×P/S and incubated at 37° C., 5% CO2. Compounds were stored as 10 mM DMSO stock. For the assay, MM1S cells (3 million cells/well) were plated in 6-well plates and incubated over night. Cells were treated with respective compounds using a serial dilution: 0.3 μM, 3 μM and 30 μM as well as a vehicle only (DMSO) control for 6 hours. Media with suspension cells was subsequently transferred to 15 mL conical tubes, wells rinsed twice with ice-cold PBS and merged with cell suspension in respective 15 mL conical tube. Cells were spinned down, supernatant aspirated, pellets resuspended in ice-cold PBS and transferred to microtubes. Cells were spinned down, supernatant aspirated and pellets resuspended in 120 μL RIPA lysis buffer supplemented with protease and phosphatase inhibitors. Cell lysates were incubated on ice for 20 minutes followed by centrifugation at >20,000×g for 5 min. Supernatants were transferred to fresh microtubes and stored at −80° C. Total protein concentration was determined using a BCA assay with a BSA standard curve and concentration of all samples was adjusted to 1 mg/mL. […] Chemiluminescence signals were then detected using a LAS-4000 system with default settings and signals quantified using Image Studio Lite software (version 5.2). […]

CK1alpha = molecular target: T6, CK1alpha (Homo sapiens, UniProt P48729); assay: Western blot selectivity assay in MM1S cells: CK1alpha; type: cell-based; parameters: key: A represents a no degradation observed at 30 μM; B represents trace degradation at 30 μM (below 20%); C represents weak degradation at 30 μM (below 50%); D represents degradation at 30 μM (>90%); E represents degradation at 3 μM (>90%); F represents degradation at 0.3 μM (>90%); settings: MM1S cells, 0.3, 3 and 30 μM, 6 hours
T6 construct: endogenous in cells; host or cells: MM1S (ATCC CRL-2974)
Method: as §2

[4] = bounds stated in the text lists b2059-b2061, read-out: IC50 value
[5] = cereblon binding, class code, read-out: rFP IC50
[6] = CAL-51 cells, 6 hours, read-out: Code (activity for GSPT1 degradation, DC50)
[7] = compounds with code A, read-out: DC50 value

T4 sequence (Q96SW2 whole entry): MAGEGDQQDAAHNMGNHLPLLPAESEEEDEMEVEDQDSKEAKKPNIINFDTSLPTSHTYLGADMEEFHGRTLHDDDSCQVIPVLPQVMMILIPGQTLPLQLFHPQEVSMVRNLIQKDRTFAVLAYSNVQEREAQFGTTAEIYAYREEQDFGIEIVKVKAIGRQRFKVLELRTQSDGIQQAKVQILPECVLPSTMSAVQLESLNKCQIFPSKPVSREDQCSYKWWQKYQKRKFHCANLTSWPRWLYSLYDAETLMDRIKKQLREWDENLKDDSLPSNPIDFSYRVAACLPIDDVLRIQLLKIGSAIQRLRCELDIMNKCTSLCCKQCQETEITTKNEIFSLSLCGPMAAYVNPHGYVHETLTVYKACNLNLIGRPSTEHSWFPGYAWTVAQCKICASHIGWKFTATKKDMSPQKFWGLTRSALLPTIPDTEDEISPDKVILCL
T3 sequence (Q96SW2 whole entry partner): as the sequence (Q96SW2 whole entry) above
T3 sequence (Q16531 2-1140 partner limits assumed): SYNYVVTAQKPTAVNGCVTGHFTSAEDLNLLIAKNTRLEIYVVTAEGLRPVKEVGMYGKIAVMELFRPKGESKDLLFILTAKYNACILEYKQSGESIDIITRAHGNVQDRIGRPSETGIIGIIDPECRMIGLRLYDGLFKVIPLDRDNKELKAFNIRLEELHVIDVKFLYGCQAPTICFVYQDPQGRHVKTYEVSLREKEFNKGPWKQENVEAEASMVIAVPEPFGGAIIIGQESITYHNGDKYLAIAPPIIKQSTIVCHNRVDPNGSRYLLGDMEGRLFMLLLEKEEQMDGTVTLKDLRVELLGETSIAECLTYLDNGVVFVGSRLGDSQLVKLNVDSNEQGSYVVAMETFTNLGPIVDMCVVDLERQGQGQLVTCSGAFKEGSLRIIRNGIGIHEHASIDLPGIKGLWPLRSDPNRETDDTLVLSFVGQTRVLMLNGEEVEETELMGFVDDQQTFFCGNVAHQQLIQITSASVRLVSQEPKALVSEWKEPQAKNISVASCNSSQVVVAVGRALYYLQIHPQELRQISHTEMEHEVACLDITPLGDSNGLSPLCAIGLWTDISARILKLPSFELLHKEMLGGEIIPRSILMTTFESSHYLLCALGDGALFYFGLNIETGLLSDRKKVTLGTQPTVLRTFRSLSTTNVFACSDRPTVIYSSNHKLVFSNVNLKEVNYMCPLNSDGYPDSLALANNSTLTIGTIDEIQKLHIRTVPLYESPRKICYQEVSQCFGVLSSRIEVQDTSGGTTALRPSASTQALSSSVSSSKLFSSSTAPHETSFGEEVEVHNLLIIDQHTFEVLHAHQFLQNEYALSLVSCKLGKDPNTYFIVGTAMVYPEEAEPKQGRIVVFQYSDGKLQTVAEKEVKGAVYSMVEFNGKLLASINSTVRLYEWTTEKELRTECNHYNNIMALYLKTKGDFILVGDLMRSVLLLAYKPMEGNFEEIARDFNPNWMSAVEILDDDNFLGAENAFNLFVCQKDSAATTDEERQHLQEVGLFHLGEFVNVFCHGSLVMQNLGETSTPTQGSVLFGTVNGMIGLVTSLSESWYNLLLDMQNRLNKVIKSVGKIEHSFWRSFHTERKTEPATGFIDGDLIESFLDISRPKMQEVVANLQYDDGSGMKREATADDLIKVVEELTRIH
T3 sequence (Q13422 whole entry): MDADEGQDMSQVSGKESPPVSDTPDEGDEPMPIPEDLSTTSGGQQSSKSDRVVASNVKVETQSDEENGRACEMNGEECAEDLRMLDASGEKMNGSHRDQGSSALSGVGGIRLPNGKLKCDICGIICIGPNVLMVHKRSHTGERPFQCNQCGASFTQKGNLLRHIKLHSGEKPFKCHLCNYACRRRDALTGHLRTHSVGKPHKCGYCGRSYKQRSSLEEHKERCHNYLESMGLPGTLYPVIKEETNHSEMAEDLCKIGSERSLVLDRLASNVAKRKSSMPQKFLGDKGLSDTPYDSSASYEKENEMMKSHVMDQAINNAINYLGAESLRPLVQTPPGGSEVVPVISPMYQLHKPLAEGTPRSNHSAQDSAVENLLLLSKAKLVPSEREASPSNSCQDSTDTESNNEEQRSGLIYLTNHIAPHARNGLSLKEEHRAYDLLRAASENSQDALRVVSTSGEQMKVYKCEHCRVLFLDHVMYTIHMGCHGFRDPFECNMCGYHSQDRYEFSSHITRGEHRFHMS
T2 sequence (Q96SW2 whole entry partner): as the sequence (Q96SW2 whole entry) above
T2 sequence (Q16531 2-1140 partner limits assumed): as the sequence (Q16531 2-1140 partner limits assumed) above
T2 sequence (Q9UKT9 whole entry): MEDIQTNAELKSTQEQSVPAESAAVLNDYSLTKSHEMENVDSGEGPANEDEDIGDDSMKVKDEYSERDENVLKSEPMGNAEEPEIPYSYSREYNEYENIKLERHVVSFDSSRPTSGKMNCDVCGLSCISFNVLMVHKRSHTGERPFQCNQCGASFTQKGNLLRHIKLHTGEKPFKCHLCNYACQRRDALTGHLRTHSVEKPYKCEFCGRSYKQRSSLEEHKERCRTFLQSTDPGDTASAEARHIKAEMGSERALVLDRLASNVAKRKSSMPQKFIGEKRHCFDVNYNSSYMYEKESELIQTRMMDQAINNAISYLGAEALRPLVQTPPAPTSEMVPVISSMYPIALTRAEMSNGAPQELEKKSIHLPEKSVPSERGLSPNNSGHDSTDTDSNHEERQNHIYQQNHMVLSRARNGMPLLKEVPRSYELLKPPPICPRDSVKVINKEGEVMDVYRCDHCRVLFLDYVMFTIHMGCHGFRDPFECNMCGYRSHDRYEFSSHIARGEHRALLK
T1 sequence (P15170 whole entry): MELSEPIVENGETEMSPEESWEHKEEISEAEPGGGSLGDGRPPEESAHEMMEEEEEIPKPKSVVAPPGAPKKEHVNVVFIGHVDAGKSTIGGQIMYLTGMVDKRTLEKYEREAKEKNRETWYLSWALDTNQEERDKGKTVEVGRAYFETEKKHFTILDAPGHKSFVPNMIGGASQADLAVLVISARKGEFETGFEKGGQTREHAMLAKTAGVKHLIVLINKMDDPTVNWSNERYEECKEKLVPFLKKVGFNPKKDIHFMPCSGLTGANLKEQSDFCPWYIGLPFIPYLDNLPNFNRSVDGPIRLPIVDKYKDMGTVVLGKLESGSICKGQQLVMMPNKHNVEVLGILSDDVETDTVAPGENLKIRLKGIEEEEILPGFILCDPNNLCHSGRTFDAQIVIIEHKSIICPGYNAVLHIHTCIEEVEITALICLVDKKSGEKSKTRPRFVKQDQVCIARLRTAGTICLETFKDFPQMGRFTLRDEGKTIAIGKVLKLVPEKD
T1 sequence (Q96SW2 whole entry): as the sequence (Q96SW2 whole entry) above
T1 sequence (Q16531 2-1140 partner limits assumed): as the sequence (Q16531 2-1140 partner limits assumed) above
T6 sequence (Q96SW2 whole entry partner): as the sequence (Q96SW2 whole entry) above
T6 sequence (Q16531 2-1140 partner limits assumed): as the sequence (Q16531 2-1140 partner limits assumed) above
T6 sequence (P48729 whole entry): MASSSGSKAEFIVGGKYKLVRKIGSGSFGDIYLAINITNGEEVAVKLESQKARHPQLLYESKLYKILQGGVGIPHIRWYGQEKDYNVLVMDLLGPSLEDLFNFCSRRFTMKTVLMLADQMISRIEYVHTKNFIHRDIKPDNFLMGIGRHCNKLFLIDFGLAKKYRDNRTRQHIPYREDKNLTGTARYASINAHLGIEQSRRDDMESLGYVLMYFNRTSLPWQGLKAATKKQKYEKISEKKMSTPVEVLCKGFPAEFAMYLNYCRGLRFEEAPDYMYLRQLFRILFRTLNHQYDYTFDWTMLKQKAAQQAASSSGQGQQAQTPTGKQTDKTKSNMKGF
T5 sequence (Q96SW2 whole entry partner): as the sequence (Q96SW2 whole entry) above
T5 sequence (Q16531 2-1140 partner limits assumed): as the sequence (Q16531 2-1140 partner limits assumed) above
T5 sequence (Q96JP5 2-570 limits assumed): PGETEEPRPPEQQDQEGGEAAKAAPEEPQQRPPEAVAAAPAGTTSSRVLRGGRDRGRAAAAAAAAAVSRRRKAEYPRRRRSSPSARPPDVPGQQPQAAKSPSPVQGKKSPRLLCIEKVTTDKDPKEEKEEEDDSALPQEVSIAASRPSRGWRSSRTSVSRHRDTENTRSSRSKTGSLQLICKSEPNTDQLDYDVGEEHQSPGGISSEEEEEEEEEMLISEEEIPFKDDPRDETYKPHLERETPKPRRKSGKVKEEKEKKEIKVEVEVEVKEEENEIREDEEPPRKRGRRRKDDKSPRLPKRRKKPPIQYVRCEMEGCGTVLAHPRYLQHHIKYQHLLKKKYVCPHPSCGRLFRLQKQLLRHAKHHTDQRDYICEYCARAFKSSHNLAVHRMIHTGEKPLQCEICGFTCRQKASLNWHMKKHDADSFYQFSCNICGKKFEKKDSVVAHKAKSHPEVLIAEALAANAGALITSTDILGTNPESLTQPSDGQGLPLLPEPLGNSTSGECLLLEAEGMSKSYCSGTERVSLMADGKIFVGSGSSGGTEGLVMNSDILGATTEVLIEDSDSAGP

SMILES	GSPT1 degradation (GSPT1 [1])	IKZF1 degradation (IKZF1 (Ikaros))	IC50 [2, 4]	IC50 [2, 5]	further results
O=C1CCC(N2Cc3ccc(COC(=O)Nc4ccc(-c5ccccc5)nc4)cc3C2=O)C(=O)N1 (centres unmarked) [Compound 42]	F (F represents degradation at 0.3 μM (>90%))	A			IKZF3 degradation (IKZF3 (Aiolos)): A
CC(C)(C)c1ccc(NC(=O)OCc2ccc3c(c2)C(=O)N(C2CCC(=O)NC2=O)C3)cc1 (centres unmarked) [Compound 47]	F (F represents degradation at 0.3 μM (>90%))	A	< 1700 nM	1100 to 1700 nM	IKZF3 degradation (IKZF3 (Aiolos)): A
CCc1cc(NC(=O)OCc2ccc3c(c2)C(=O)N(C2CCC(=O)NC2=O)C3)sn1 (centres unmarked) [Compound 151]			< 500 nM	< 500 nM	DC50 (GSPT1 [3]; [6]): 0.03 to 0.3 µM
CC(F)(F)c1ccc(NC(=O)OCc2ccc3c(c2)C(=O)N(C2CCC(=O)NC2=O)C3)cc1 (centres unmarked) [Compound 99]			< 1700 nM	1100 to 1700 nM	DC50 (GSPT1 [3]; [6]): 0.03 to 0.3 µM
O=C1CCC(N2Cc3ccc(COC(=O)Nc4cccc(OC5CC5(F)F)c4)cc3C2=O)C(=O)N1 (centres unmarked) [Compound 140]			< 1100 nM	500 to 1100 nM	DC50 (GSPT1 [3]; [6]): < 0.03 µM; DC50 (GSPT1 [3]; [7]): ≤ 0.03 µM
Cc1c(Cl)cc(NC(=O)OCc2ccc3c(c2)C(=O)N(C2CCC(=O)NC2=O)C3)cc1CC1COCCN1C (centres unmarked) [Compound 150, (2-(2,6-dioxopiperidin-3-yl)-3-oxoisoindolin-5-yl) methyl(3-chloro-4-methyl-5-((4-methylmorpholin-3-yl)methyl)phenyl)carbamate]					IC50 ([2]; IC50 value, bounds stated in the text lists b2059-b2061): < 1700 nM; IC50 ([2]; rFP IC50 [nM], cereblon binding, class code): 1100 to 1700 nM; DC50 (GSPT1 [3]; [7]): ≤ 0.03 µM; DC50 (GSPT1 [3]; read-out: Code (activity for GSPT1 degradation, DC50), CAL-51 cells, 6 hours): < 0.03 µM
COc1cc(C)c(Cl)cc1NC(=O)OCc1ccc2c(c1)C(=O)N(C1CCC(=O)NC1=O)C2 (centres unmarked) [Compound 1]	F (F represents degradation at 0.3 μM (>90%))	A	< 1700 nM	1100 to 1700 nM	ZFP91 degradation (ZFP91): A
Cc1c(Cl)cc(NC(=O)OCc2ccc3c(c2)C(=O)N(C2CCC(=O)NC2=O)C3)cc1OCCN1CCOCC1 (centres unmarked) [Compound 48]	F (F represents degradation at 0.3 μM (>90%))	A	< 1700 nM	1100 to 1700 nM	
CC(C)(C)c1ccc(NC(=O)OCc2ccc3c(c2)C(=O)N(C2CCC(=O)NC2=O)C3)cn1 (centres unmarked) [Compound 43]	F (F represents degradation at 0.3 μM (>90%))	A			
O=C1CCC(N2Cc3ccc(COC(=O)Nc4cccc(OC(F)(F)F)c4)cc3C2=O)C(=O)N1 (centres unmarked) [Compound 3]	F (F represents degradation at 0.3 μM (>90%))	A	< 1700 nM	1100 to 1700 nM	IKZF3 degradation (IKZF3 (Aiolos)): A
CCc1ncc(NC(=O)OCc2ccc3c(c2)C(=O)N(C2CCC(=O)NC2=O)C3)cc1C (centres unmarked) [Compound 49]	F (F represents degradation at 0.3 μM (>90%))	A	< 1700 nM	1100 to 1700 nM	IKZF3 degradation (IKZF3 (Aiolos)): A
O=C1CCC(N2Cc3ccc(COC(=O)Nc4cc(Cl)cc(OC(F)(F)F)c4)cc3C2=O)C(=O)N1 (centres unmarked) [Compound 11]					DC50 (GSPT1 [3]; [7]): ≤ 0.03 µM
O=C1CCC(N2Cc3ccc(COC(=O)Nc4ccc(N5CCCCC5)nc4)cc3C2=O)C(=O)N1 (centres unmarked) [Compound 15]	F (F represents degradation at 0.3 μM (>90%))	A	< 1700 nM	500 to 1100 nM	
Cc1ncc(NC(=O)OCc2ccc3c(c2)C(=O)N(C2CCC(=O)NC2=O)C3)cc1Cl (centres unmarked) [Compound 6]	F (F represents degradation at 0.3 μM (>90%))	A	< 1700 nM	500 to 1100 nM	CK1alpha degradation (CK1alpha): A
O=C1CCC(N2Cc3ccc(COC(=O)Nc4ccc(C5(F)CC5)cc4)cc3C2=O)C(=O)N1 (centres unmarked) [Compound 115, (2-(2,6-dioxopiperidin-3-yl)-3-oxoisoindolin-5-yl)methyl(4-(1-fluorocyclopropyl)phenyl) carbamate]			< 500 nM	< 500 nM	DC50 (GSPT1 [3]; [6]): 0.03 to 0.3 µM
